Values after ≈ are worked out from the molar mass of the structure shown. Where two headings read alike, the source gives them in different places. Where only a bound is given, the exact number is not on record here.

The values that follow come from patent US3993771A (priority 1974, dated 1976).

Data set [1] concerns Pyricularia oryzae. In kind it is in vivo. The settings on record: preventive.
For data set [2], the system named is rice plants (var.: Kinki No. 33). The settings on record: preventive test.
The test system of data set [3] is Pyricularia oryzae. Type of data set: in vivo. The settings on record: curative.
In data set [4] the test system is Pyricularia oryzae. Description: microbe, parasite or virus in culture. Type of data set: cell-based. The settings on record: for Diameter of mycelium / Diameter of mycelium (symbol): 27° C., 2 weeks; for Diameter of mycelium: untreated 63.5 m/m; for MIC: Pyricularia oryzae, 336 h, read-out: MIC (minimum inhibitory concentration on mycelial growth).
[5] abbreviates: concentration of active ingredient 100 ppm.
Where [6] appears, read: concentration of active ingredient 20 ppm.
[7] abbreviates: concentration of active ingredient 200 ppm.
[8] abbreviates: concentration of active ingredient 500 ppm.

On to `CC(C)OP(=O)(OC(C)C)SCc1ccccc1` [Commercial fungicide A, 0,0-diisopropyl-S-benzylphosphorothioate, reference compound], for which, in the data set on Pyricularia oryzae [1] (setting [5]), the Disease control amounted to 92% and the Disease severity stood at 7.5%. In data set [2] (100 ppm), the Phytotoxicity entry was “no”.

Take `C[C@H]1O[C@H](OC2[C@@H](O)[C@@H](O)C(O)[C@H](O)[C@H]2O)[C@@H](N)C[C@@H]1N=C(N)C(=O)O.Cl` (stereo partly drawn) [Commercial fungicide B, Kasugamycin hydrochloride, reference compound]: in the data set with Pyricularia oryzae [3] (setting [6]), the Disease control is given as 82% and the Disease severity was 17.5%.

In turn, `O=C1OCCC1=Cc1c(Cl)cccc1Cl` [Compound 2, α-(2,6-dichlorobenzylidene)-γ-butyrolactone] displayed a Disease control in the data set with Pyricularia oryzae [1] (setting [5]) of 100%. For the same compound, the Disease severity in the data set with Pyricularia oryzae [1] (setting [5]) turned out to be 0%. Also, the Diameter of mycelium with Pyricularia oryzae [4] (2 ppm), in the data set with Pyricularia oryzae [4] (10 ppm), with Pyricularia oryzae [4] (50 ppm) and with Pyricularia oryzae [4] (250 ppm) was 0 m/m throughout. The MIC with Pyricularia oryzae [4] is less than 2 µg/mL. Further, in data set [2] (100 ppm), the Phytotoxicity result is given as “no”.

For the compound `CC1CC(=Cc2c(F)cccc2Cl)C(=O)O1` (stereo not drawn) [Compound 3, α-(2-chloro-6-fluorobenzylidene)-γ-valerolactone], the Disease control in the data set with Pyricularia oryzae [1] (setting [5]) and in the data set with Pyricularia oryzae [3] (setting [7]) was 100% in each case. For the same compound, the Disease severity in the data set with Pyricularia oryzae [1] (setting [5]) and in the data set with Pyricularia oryzae [3] (setting [7]) was 0% throughout. Also, the Diameter of mycelium with Pyricularia oryzae [4] (2 ppm), in the data set on Pyricularia oryzae [4] (10 ppm), in the data set on Pyricularia oryzae [4] (50 ppm) and with Pyricularia oryzae [4] (250 ppm) was 0 m/m throughout. Also, in the data set on Pyricularia oryzae [4], the MIC was less than 2 µg/mL. For the same compound, the Phytotoxicity entry in data set [2] (100 ppm) is “no”.

In the data set with Pyricularia oryzae [1] (setting [5]), `Cc1cccc(C)c1C=C1CCOC1=O` [Compound 4] had a Disease control of 99%. The compound also displayed a Disease severity with Pyricularia oryzae [1] (setting [5]) of 1.3%. For the same compound, the Diameter of mycelium with Pyricularia oryzae [4] (2 ppm), in the data set with Pyricularia oryzae [4] (10 ppm), with Pyricularia oryzae [4] (50 ppm) and in the data set with Pyricularia oryzae [4] (250 ppm) was 0 m/m each time. For the same compound, the MIC in the data set with Pyricularia oryzae [4] is less than 2 µg/mL. Also, the Phytotoxicity result in data set [2] (100 ppm) is recorded as “no”.

As for `Cc1ccccc1C=C1CC(C)OC1=O` (stereo not drawn) [Compound 5], the Disease control with Pyricularia oryzae [1] (setting [5]) is on record as 99%; in the data set with Pyricularia oryzae [3] (setting [7]) it was 100%. For the same compound, the Disease severity amounted to 1.3% with Pyricularia oryzae [1] (setting [5]) and 0% in the data set on Pyricularia oryzae [3] (setting [7]). Besides, the “Diameter of mycelium (symbol)” value in the data set with Pyricularia oryzae [4] (2 ppm) is reported as “±”. Also, the Diameter of mycelium in the data set on Pyricularia oryzae [4] (10 ppm), with Pyricularia oryzae [4] (50 ppm) and with Pyricularia oryzae [4] (250 ppm) was 0 m/m throughout. For the same compound, the MIC with Pyricularia oryzae [4] was approximately 2 µg/mL (≈ 9.89 µM). For the same compound, in data set [2] (100 ppm), the Phytotoxicity result is given as “no”.

Turning to `CC1CC(=Cc2ccccc2Cl)C(=O)O1` (stereo not drawn) [Compound 6, α-(o-chlorobenzylidene)-γ-valerolactone], the Disease control in the data set on Pyricularia oryzae [1] (setting [5]) and in the data set on Pyricularia oryzae [3] (setting [7]) was 100% in each case. For the same compound, the Disease severity with Pyricularia oryzae [1] (setting [5]) and in the data set on Pyricularia oryzae [3] (setting [7]) was 0% throughout. Moreover, the Diameter of mycelium in the data set with Pyricularia oryzae [4] (2 ppm), with Pyricularia oryzae [4] (10 ppm), in the data set on Pyricularia oryzae [4] (50 ppm) and in the data set on Pyricularia oryzae [4] (250 ppm) was 0 m/m throughout. In addition, in the data set with Pyricularia oryzae [4], the MIC was less than 2 µg/mL. Also, in data set [2] (100 ppm), the Phytotoxicity entry is listed as “no”.

Consider `CC1CC(=Cc2ccccc2Br)C(=O)O1` (stereo not drawn) [Compound 7], for which the Disease control in the data set with Pyricularia oryzae [1] (setting [5]) and with Pyricularia oryzae [3] (setting [7]) was 100% each time. For the same compound, the Disease severity with Pyricularia oryzae [1] (setting [5]) and with Pyricularia oryzae [3] (setting [7]) was 0% in each case. Moreover, the Diameter of mycelium in the data set on Pyricularia oryzae [4] (2 ppm), in the data set on Pyricularia oryzae [4] (10 ppm), in the data set on Pyricularia oryzae [4] (50 ppm) and in the data set with Pyricularia oryzae [4] (250 ppm) was 0 m/m each time. In the data set on Pyricularia oryzae [4], the MIC was less than 2 µg/mL. The Phytotoxicity result in data set [2] (100 ppm) is recorded as “no”.

Take `CC1CC(=Cc2c(Cl)cccc2Cl)C(=O)O1` (stereo not drawn) [Compound 8]: the Disease control in the data set on Pyricularia oryzae [1] (setting [5]) was 100%. This compound also had a Disease severity with Pyricularia oryzae [1] (setting [5]) of 0%. The Diameter of mycelium with Pyricularia oryzae [4] (2 ppm), with Pyricularia oryzae [4] (10 ppm), with Pyricularia oryzae [4] (50 ppm) and with Pyricularia oryzae [4] (250 ppm) was 0 m/m in each case. Further, the MIC in the data set on Pyricularia oryzae [4] is less than 2 µg/mL. Further, the Phytotoxicity entry in data set [2] (100 ppm) is “no”.

As for `CCC1CC(=Cc2ccccc2Cl)C(=O)O1` (stereo not drawn) [Compound 9, α-(o-chlorobenzylidene)-γ-ethyl-γ-butyrolactone], the Disease control in the data set with Pyricularia oryzae [1] (setting [5]) and with Pyricularia oryzae [3] (setting [7]) was 99% each time. The Disease severity in the data set on Pyricularia oryzae [1] (setting [5]) and with Pyricularia oryzae [3] (setting [7]) was 1.3% throughout. In addition, in the data set on Pyricularia oryzae [4] (2 ppm), the “Diameter of mycelium (symbol)” value was “±”. Besides, the Diameter of mycelium in the data set with Pyricularia oryzae [4] (10 ppm), in the data set on Pyricularia oryzae [4] (50 ppm) and in the data set on Pyricularia oryzae [4] (250 ppm) was 0 m/m throughout. For the same compound, in the data set on Pyricularia oryzae [4], the MIC is approximately 2 µg/mL (≈ 8.45 µM). Besides, in data set [2] (100 ppm), the Phytotoxicity entry is listed as “no”.

Take `CC(C)(C)C1CC(=Cc2ccccc2Cl)C(=O)O1` (stereo not drawn) [Compound 10]: in the data set on Pyricularia oryzae [1] (setting [5]), the Disease control is recorded as 99%. For the same compound, the Disease severity in the data set with Pyricularia oryzae [1] (setting [5]) turned out to be 1.3%. Also, the “Diameter of mycelium (symbol)” value in the data set on Pyricularia oryzae [4] (2 ppm) is “±”. For the same compound, the Diameter of mycelium in the data set with Pyricularia oryzae [4] (10 ppm), with Pyricularia oryzae [4] (50 ppm) and in the data set on Pyricularia oryzae [4] (250 ppm) was 0 m/m in each case. Further, in the data set on Pyricularia oryzae [4], the MIC was approximately 2 µg/mL (≈ 7.55 µM). In addition, in data set [2] (100 ppm), the Phytotoxicity entry is reported as “no”.

For the compound `CC1(C)CC(=Cc2ccccc2Cl)C(=O)O1` [Compound 11], the Disease control in the data set with Pyricularia oryzae [1] (setting [5]) is 99%. In addition, the Disease severity with Pyricularia oryzae [1] (setting [5]) is listed as 1.3%. For the same compound, the “Diameter of mycelium (symbol)” value with Pyricularia oryzae [4] (2 ppm) is given as “±”. In addition, the Diameter of mycelium in the data set on Pyricularia oryzae [4] (10 ppm), with Pyricularia oryzae [4] (50 ppm) and in the data set on Pyricularia oryzae [4] (250 ppm) was 0 m/m in each case. The MIC in the data set on Pyricularia oryzae [4] was approximately 2 µg/mL (≈ 8.45 µM). Further, in data set [2] (100 ppm), the Phytotoxicity entry is “no”.

Turning to `Cc1ccccc1C=C1CC(C)(C)OC1=O` [Compound 12, α-(o-methylbenzylidene)-γ-dimethyl-γ-butyrolactone], the Disease control in the data set on Pyricularia oryzae [1] (setting [5]) is 97%. In addition, the Disease severity in the data set on Pyricularia oryzae [1] (setting [5]) is 2.5%. Also, the Diameter of mycelium in the data set on Pyricularia oryzae [4] (2 ppm) is on record as 2.0 m/m; in the data set with Pyricularia oryzae [4] (10 ppm) it was 0 m/m; in the data set with Pyricularia oryzae [4] (50 ppm), 0 m/m; in the data set on Pyricularia oryzae [4] (250 ppm), 0 m/m. Moreover, the MIC in the data set with Pyricularia oryzae [4] was 2 µg/mL (≈ 9.25 µM). Also, the Phytotoxicity result in data set [2] (100 ppm) is “no”.

In the data set on Pyricularia oryzae [1] (setting [8]), `C=C1CCOC1=O` [Control (i), reference compound] showed a Disease control of 0% and a Disease severity of 100%. Moreover, in data set [2] (500 ppm), the Phytotoxicity result is on record as “no”.

For `CC1CC(=Cc2ccccc2)C(=O)O1` (stereo not drawn) [Control (ix), reference compound], in the data set with Pyricularia oryzae [1] (setting [8]), the Disease control was found to be 10% and the Disease severity came to 90.0%. Besides, in data set [2] (500 ppm), the Phytotoxicity result is listed as “no”.

Turning to `O=C1OCCC1=Cc1ccc([N+](=O)[O-])cc1` [Control (v), reference compound], in the data set on Pyricularia oryzae [1] (setting [8]), the Disease control came out at 0%. The compound further came in with a Disease severity in the data set on Pyricularia oryzae [1] (setting [8]) of 100.0%. The Diameter of mycelium with Pyricularia oryzae [4] (2 ppm) came to 69.5 m/m; in the data set on Pyricularia oryzae [4] (10 ppm) it was 58.5 m/m; in the data set on Pyricularia oryzae [4] (50 ppm) it was 43.0 m/m; with Pyricularia oryzae [4] (250 ppm), 30.5 m/m. Further, in the data set on Pyricularia oryzae [4], the MIC was more than 250 µg/mL. The Phytotoxicity entry in data set [2] (500 ppm) was “no”.
